This is an account of results in patent US20250099488A1, “ANTI-PARASITE COMPOUNDS” (AUSTRALIAN NATIONAL UNIVERSITY, priority 2022, published 2025).

What is called IC50 is the midpoint of a concentration-inhibition curve.

Where two headings read alike, the source gives them in different places.

The subject of data set [1] is P. falciparum infected red blood cells (iRBC) vs uninfected red blood cells (uRBC). The data set is described as follows: Uptake of fluorescent cholesterol analogues into infected vs uninfected RBCs (flow cytometry, microscopy). Type of data set: cell-based, Plasmodium falciparum. Conditions: 24 hrs incubation, ring-stage culture, cholesterol-depleted media. The protocol:
(§1) For quantification, events were measured on a LSR II or LSRFortessa Flow Cytometer. NBD/BODIPY fluorescence was detected at 488 nm ex/530 nm em. Hoechst 33342 (Thermo Fisher) fluorescence was detected at 410 nm ex/450 nm em. Resorufin fluorescence was detected at 561 nm ex/610 nm em. Mitotracker Deep Red was detected at 633 nm ex/670 nm em. Dehydroergosterol was detected at 355 nm ex/450 nm em.
(§2) Data were initially processed using FlowJo. RBCs were gated on FSC and SCC. iRBCs (positive) and uRBCs (negative) were differentiated by Hoechst or Mitotracker fluorescence. The geometric mean of fluorescence intensity (mean fluorescence intensity, MFI) and/or the percentage of each population (e.g. Hoechst positive) was calculated with FlowJo. Background fluorescence was subtracted based on unstained controls (buffer or solvent only). Except where otherwise specified, MFI data was normalised between experiments by setting the fluorescence of untreated uRBCs to 1.
Ring-stage parasites at 4% parasitaemia and 2% haematocrit were incubated with 2.02 uM cholesterol analogues or solvent controls in cholesterol-depleted media for 24 hours at 37° C. under microaerophilic conditions. […] Samples were read on a flow cytometer or imaged with fluorescence microscopy as described above. […]

The subject of data set [2] is P. falciparum gametocytes (stage III-IV). The data set is described as follows: Gametocyte viability assay (MitoTracker, flow cytometry). Format: cell-based, Plasmodium falciparum. An excerpt:
Gametocyte assays begun eight days post-invasion (Stage III-IV).
(§3) Growth inhibition data were normalised by subtracting background fluorescence, luminescence, absorbance, or percentage of cells from a no-growth or no-viability control (high drug concentration, no-parasite control, or time=0 measurement as specified), and expressed as a percentage of the growth or cell percentage in the negative control (culture media alone or solvent control) at the indicated timepoint (or to the highest measurement reached during the assay for FIG. 15B).
For orientation: Flow cytometry measures light scatter and fluorescence of single cells or particles in a stream.

Data set [3] deals with human foreskin fibroblasts (HFF). The experiment in a line: HFF growth inhibition assay (SYBR Safe). Format: cell-based. The protocol: Cells were incubated with a serial dilution of each compound, or media/DMSO alone. The protein synthesis inhibitor cycloheximide (10 μg/mL) was used as a positive control to determine background fluorescence. Approximately 5000 cells were seeded in each well. […] Plates were transferred to a −18° C. freezer. […] Fluorescence was read at 490 nm excitation/520 nm emission on a FLUOstar Optima fluorescence plate reader.
HFF cell growth inhibition assays began with 5000 cells per well. 10 μg/mL cycloheximide was used as a no-growth control.

Another data set concerns Leishmania tarentolae. The experiment in a line: Leishmania tarentolae growth inhibition. Type of data set: cell-based. Conditions: 72 hours, FIG. 22.
Data set [4] deals with human hepatoma cells (Huh7). The experiment in a line: Huh7 hepatoma viability assay (CellTiter-Blue). Type of data set: cell-based. Conditions: 48 hours; effect on cellular integrity / modest cytotoxicity. The protocol:
Huh7 hepatoma viability assays were conducted in the same manner as the P. berghei assays, with metabolic capacity (indicating viability) measured by incubation with CellTiter-Blue® (Promega) for 3 hours.
(The colour change of resazurin is a common sign of viable cells or microbes.)

Data set [5] can be described thus: HEK293 cell viability assay (MTT). Type of data set: cell-based, human. The following applies: human; 96 hours, FIG. 16H / FIG. 18C; read-out: IC50, HEK293 cytotoxicity. The protocol:
HEK293 cell viability assays began with 5000 cells per well. 10 μg/mL cycloheximide was used as a no-growth control. Metabolic capacity (indicating viability) was measured by incubation with 0.45 mg/mL methylthiazolyldiphenyl-tetrazolium bromide (MTT; Sigma M2128) for two hours followed by crystal solubilisation in SDS.

Data set [6] deals with P. falciparum CAM3.II (mutated Kelch-13, resistant). The data set is described as follows: Ring stage survival assay, resistant strain. Format: cell-based, Plasmodium falciparum. The following applies: 700 nM for six hours, then 66 hours without drug, FIG. 17B. From the text:
(§4) The inventors tested these compounds in a ring stage survival assay, which allows the detection of resistant parasites against this […] drug and is the standard method for investigating resistance to artemisinin and its derivatives (Witkowski B, Menard D, Amaratunga C. Fairhurst R. Ring-stage Survival Assays (RSA) to evaluate the in-vitro and ex-vivo susceptibility of Plasmodium falciparum to artemisinins Procedure. Inst Pasteur du Cambodge—Natl Institutes Heal [Internet]. 2013 Sep. 11 [cited 2022 Jun. 19]; Procedure; available from: https://www.wwarn.org/sites/default/files/INV10-Standard-Operating-Procedure-Ring-Stage-Survival-Assays.pdf). This assay involves a short treatment window against newly-invaded ring stage parasites, followed by removal of drug pressure to mimic the clearance of the drug from plasma. We utilised two parasite strains: an isolate from Cambodia (CAM3.II) with a mutated Kelch-13 conferring resistance, and a genetically modified revertant of this strain (CAM3.IIREV) conferring drug susceptibility (Straimer J, Gnädig N F, Witkowski B, Amaratunga C, Duru V, Ramadani A P, et al. K13-propeller mutations confer artemisinin resistance in Plasmodium falciparum clinical isolates. Science (80-) [Internet]. 2015 Jan. 23 [cited 2022 Jun. 19]; 347(6220):428-31; available from: https://www.science.org/doi/10.1126/science.1260867).
(§5) Following tight synchronisation, CAM3.II and CAM3.IIREV ring stage parasites (0-3 hours post invasion) at 1% parasitaemia and 2% haematocrit were incubated with 700 nM of compounds or solvent-only controls for exactly six hours, before removing the drug, thoroughly washing in RPMI, and returning to culture conditions for a further 66 hours. Some cells were treated with 700 nM artesunate for 72 hours as a no-growth control. DNA replication (indicating growth) was measured at the specified time using SYBR Safe DNA Gel Stain. Microscope slide smears of each condition were stained with 10% v/v Giemsa and examined under a light microscope (1 000× magnification); with ‘viable’ (morphologically normal) and ‘non-viable’ (morphologically aberrant; vacuolated or pyknotic) parasites distinguished according to standard protocol (Witkowski B, Menard D, Amaratunga C, Fairhurst R. Ring-stage Survival Assays (RSA) to evaluate the in-vitro and ex-vivo susceptibility of Plasmodium falciparum to artemisinins Procedure. Inst Pasteur du Cambodge—Natl Institutes Heal [Internet]. 2013 Sep. 11 [cited 2022 Jun. 19]; Procedure. Available from: https://www.wwam.org/sites/default/files/INV10-Standard-Operating-Procedure-Ring-Stage-Survival-Assays.pdf). Images were captured using a Leica ICC50 camera, with a resolution of 76 nm per pixel.

The subject of data set [7] is P. falciparum CAM3.IIREV (susceptible). The experiment in a line: Ring stage survival assay, susceptible revertant strain. The following applies: 700 nM for six hours, then 66 hours without drug, FIG. 17B. Type of data set: cell-based, Plasmodium falciparum.
Text: as §4, §5

Data set [8] concerns P. falciparum infected red blood cells (iRBC) vs uninfected red blood cells (uRBC). The experiment in a line: Uptake and cleavage of steroid-resorufin conjugate in iRBCs vs uRBCs. Format: cell-based, Plasmodium falciparum. The following applies: steroid-resorufin conjugate (PAYb193), FIG. 10A. How it is done: Images were collected and deconvoluted on a Deltavision Deconvolution microscope at 1000× magnification, with a resolution of 0.067 μm per pixel. NBD and BODIPY fluorescence were detected at 475/28 nm excitation and 525/48 nm emission. Hoechst fluorescence (nucleic acid) was detected at 390/18 nm and ex/435/48 nm em. Resorufin fluorescence was detected at 575/25 nm ex and 626/45 nm em.
as §1, §2

The test system of a further data set is asexual P. falciparum. The data set is described as follows: Plasmodium growth inhibition assay (SYBR Safe), asexual stages. Type of data set: cell-based, Plasmodium falciparum. Conditions: 72 hrs, FIG. 10B. The protocol:
Compounds or solvent controls (DMSO, ethanol, or ethyl acetate) were serially diluted 2-fold across flat-bottom 96-well plates. Complete culture media without compound was used as a negative control. Chloroquine (100-200 nM) {Sigma C6628} was used as a positive control to determine background fluorescence. The parasitaemia of a culture containing predominantly ring stage parasites was counted by Giemsa smear. The parasitaemia was adjusted to 1% by addition of fresh uRBCs, and added to the plate at a final haematocrit of 1%, with 200 μL per well. The plates were incubated at 37° C. under humid microaerophilic conditions. […] Fluorescence was read at 490 nm excitation/520 nm emission on a FLUOstar Optima fluorescence plate reader {BMG Labtech}.
Growth inhibition data were normalised by subtracting background fluorescence from a no-growth control (high drug concentration or time=0 measurement as specified), and expressed as a percentage of the growth in the negative control (media alone or solvent control) either at the indicated timepoint, or to the highest measurement reached during the assay.
P. falciparum asexual parasite assays begun with ring-stage parasites at 1% parasitaemia and 1% haematocrit. 200 nM chloroquine (Sigma C6628) was used as a no-growth control. […] 17]; 8 (2):e54974).
as §3

`CC(C)CCC[C@@H](C)[C@H]1CC[C@H]2[C@@H]3CC=C4C[C@@H](OC(=O)CCCCCNc5ccc([N+](=O)[O-])c6nonc56)CC[C@]4(C)[C@H]3CC[C@]12C` [3-hexanoyl-NBD-cholesterol]: the “Uptake in iRBC compared to uRBC (fold change of fluorescence)” value in [1] is on record as “not significantly different”.

In the case of `CC1=CC(C)=[N+]2C1=C(CC[C@@H](C)[C@H]1CC[C@H]3[C@@H]4CC=C5C[C@@H](O)CC[C@]5(C)[C@H]4CC[C@]13C)c1c(C)cc(C)n1[B-]2(F)F` [24-BODIPY-cholesterol], the “Uptake in iRBC compared to uRBC (fold change of fluorescence)” value in [1] was “seems to get stuck at the RBC membrane”.

With `COc1cc(NC(C)CCCNC(=O)CCC(=O)O[C@H]2CC[C@H]3[C@@H]4CC=C5C[C@@H](O)CC[C@]5(C)[C@H]4CC[C@]23C)c2ncccc2c1` (stereo partly drawn) [BC5B], in data set [2] (FIG. 9C), the “Susceptibility of early (I-III) and late stage (III-IV) gametocytes” value was “both early (A) and late-stage (B) gametocytes are equally susceptible”. Further, in [3] (72 hrs), the “Maximal inhibition of HFF growth at the range of concentrations tested” value is not above 50%. In addition, the IC50 entry in the data set with Leishmania tarentolae was “higher efficacy than primaquine”.

As for `CC(C)(C)OOCCO[C@H]1CC[C@H]2[C@@H]3CC=C4C[C@@H](O)CC[C@]4(C)[C@H]3CC[C@]12C` [BC86D], in the data set on Leishmania tarentolae (Leishmania tarentolae, read-out: IC50), the concentration for half-maximal inhibition (IC50) is less than 1 µM.

Regarding `CC(C)OC(=O)CCC(=O)O[C@H]1CC[C@H]2[C@@H]3CC=C4C[C@@H](O)CC[C@]4(C)[C@H]3CC[C@]12C` [C-17-link, 3β-Hydroxyandrost-5-en-17β-yl succinate-propan-2-yl diester], in data set [2] (Plasmodium falciparum, 48 h, read-out: IC50, gametocyte viability), the 50% inhibitory concentration (IC50) was more than 100 µM. For the same molecule, the “Concentration at which cytotoxic effect was detected” value in data set [4] is more than 30 µM. Also, in data set [3] (72 hours, FIG. 16G), the “IC50, fibroblast growth” value is on record as “no notable inhibition was observed”. Further, the IC50 at 96 h in [5] turned out to be 43.6 µM. Moreover, in data set [6], the “Parasite survival (DNA replication)” value was “did not significantly impact on the growth of either strain”. Further, in [7], the “Parasite survival / growth inhibition (DNA replication)” value was “did not significantly impact on the growth of either strain”.

With `CC12CCC(O)CC1=CCC1C2CCC2(C)C(OC(=O)CCC(=O)OCOc3ccc4nc5ccc(=O)cc-5oc4c3)CCC12` (stereo not drawn) [Payb193, 3β-hydroxyandrost-5-en-17β-yl succinate-(hydroxymethoxy)-resorufin ester], the “Uptake of the probe, iRBCs vs uRBCs” value in [8] was “approximately 2 fold”. In addition, the “Killing of the parasite compared with uncoupled resorufin (dose-response curve)” value in the data set with asexual P. falciparum is “can kill the parasite at lower concentrations than the uncoupled resorufin base molecule”.

On to `C[C@]12CC[C@H]3[C@@H](CC=C4C[C@@H](O)CC[C@@]43C)[C@@H]1CC[C@@H]2OC(=O)CCC(=O)OCOc1ccc2nc3ccc(=O)cc-3oc2c1` [steroid-resorufin conjugate, 3β-Hydroxyandrost-5-en-17β-yl succinate-(hydroxymethoxy)-resorufin ester], for which the “Uptake of the probe, iRBCs vs uRBCs” value in data set [8] is “approximately 2 fold”.
